Test [1] has as its target human plasma kallikrein (Homo sapiens, UniProt P03952). Nature of the test: Kallikrein inhibition assay utilizing a quenched AMC peptide substrate (FLINT). Type of test: biochemical. The method, then: Biological Example 2: Kallikrein Inhibition Assay Utilizing a Quenched AMC Peptide Substrate
A fluorescence intensity (FLINT) based assay was used to monitor inhibition of human plasma kallikrein. The peptide substrate, Z-Gly-Pro-Arg-AMC (Purchased from Bachem; Catalog #I-1150) was chosen based on its relatively low KM for kallikrein which enables running the assay at lower substrate concentrations to control background fluorescence. The kinetic parameters for this substrate were determined by fitting titration data to the Michaelis-Menten equation yielding a KM=40 μm, kcat=0.76 s^−1, and kcat/KM=18932 M^−1s^−1.
The Kallikrein FLINT assay was used with the following Z-Gly-Pro-Arg-AMC assay buffer: 50 mM Tris, pH 7.5, 100 mM NaCl, 5 mM CaCl2, 0.1 mg/mL BSA, 0.03% CHAPS. Assay buffer was prepared by mixing all ingredients fresh. 2× Z-Gly-Pro-Arg-AMC peptide substrate was prepared by diluting 10 mM stock into 1× assay buffer for a 100 μM working concentration (50 μM final concentration). The 2× kallikrein stock solution was prepared by diluting 14.76 μM stock in 1× assay buffer for a 4 nM working stock solution (2 nM final concentration).
Test compound(s) were run in an 11-point, 3-fold serial dilution with a final top compound concentration of 1 μM. Final DMSO in assay was 2%. Plasma kallikrein was pre-incubated for 30-minute with compound and then 50 μM substrate was added to initiate the reaction. The assay was run with either end point (EP) reads at 30 min or kinetic (KIN) reads at 5 min intervals over 30 minutes. The time course was linear using 2 nM kallikrein greater than 30 minutes. More specifically, the assay was run as follows: • 100 nL of 0.1 mM test compound was dispensed into black 384-well non-binding Greiner BioOne 784900 plate for 1 μM final concentration; • 5 μL of 1× assay buffer was dispensed to columns 24 (low control) and 5 μL 2× human kallikrein enzyme solution was dispensed to columns 1-23 (column 23 high control); • the plate was centrifuged with a “cover” plate at 500 rpm for 1 min • the plate was pre-incubated for 30 minutes at room temperature with plate covered; • 5 μL of 2× Z-Gly-Pro-Arg-AMC peptide substrate was dispensed into the entire plate, columns 1-24; • the plate was centrifuged with a “cover” plate at 500 rpm for 1 min; • the plate was read monitoring fluorescence intensity on the BMG PHERAStar at room temperature, using fluorescence module 340 nm/440 nm.
(§1) Percent inhibition (IC50) curves were generated per compound tested, and data was analyzed using a 4-parameter logistic fit using GeneData Screener. The relative fluorescence unit (RFU) values were normalized to percent inhibition using the following equation:
% inhibition=((HC−LC)−(compound−LC)/(HC−LC))*100 • where LC—low control=mean signal of human kallikrein enzyme or 100% inhibition of human kallikrein enzyme; HC—high control=mean signal of Factor XIa+Z-Gly-Pro-Arg-AMC peptide substrate with DMSO only.
(§2) An 11-point dose response curve for the test compound(s) was generated using GENDATA to determine IC50 value based on the following equation:
Y=Bottom+(Top−Bottom)/(1+10^((log IC50−X)*HillSlope)) • where Y is the % inhibition in the presence of X inhibitor concentration, Top=high control=mean signal of human kallikrein enzyme+Z-Gly-Pro-Arg-AMC peptide substrate with DMSO only; Bottom=low control—mean signal of no human kallikrein enzyme or 100% inhibition of human kallikrein enzyme; HillSlope—Hill coefficient; and IC50=concentration of compound with 50% inhibition in relation to top/high control.
Representative compounds of formula (I) of the present invention were tested according to the procedure described in Biological Example 1 and Biological Example 2 above, with results as listed in Table 3, below. Results listed in the (ER) column were measured using endpoint reads where a single fluorescence reading was measured for each well at a 30 min timepoint. […]

The target in test [2] is Factor XIa (Homo sapiens, UniProt P03951). Briefly: Factor XIa inhibition assay utilizing a fluorophore-quencher pair peptide substrate (FLINT). The test is classed as biochemical.
Chain of Factor XIa (P03951 388-625 limits assumed): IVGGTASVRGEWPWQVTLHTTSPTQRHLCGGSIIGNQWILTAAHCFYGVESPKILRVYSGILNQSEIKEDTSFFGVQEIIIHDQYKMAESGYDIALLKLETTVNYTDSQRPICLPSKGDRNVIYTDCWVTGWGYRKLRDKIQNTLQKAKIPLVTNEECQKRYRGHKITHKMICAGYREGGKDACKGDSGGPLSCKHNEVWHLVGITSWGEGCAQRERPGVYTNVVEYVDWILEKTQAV
Chain of Factor XIa (P03951 19-387 partner limits assumed): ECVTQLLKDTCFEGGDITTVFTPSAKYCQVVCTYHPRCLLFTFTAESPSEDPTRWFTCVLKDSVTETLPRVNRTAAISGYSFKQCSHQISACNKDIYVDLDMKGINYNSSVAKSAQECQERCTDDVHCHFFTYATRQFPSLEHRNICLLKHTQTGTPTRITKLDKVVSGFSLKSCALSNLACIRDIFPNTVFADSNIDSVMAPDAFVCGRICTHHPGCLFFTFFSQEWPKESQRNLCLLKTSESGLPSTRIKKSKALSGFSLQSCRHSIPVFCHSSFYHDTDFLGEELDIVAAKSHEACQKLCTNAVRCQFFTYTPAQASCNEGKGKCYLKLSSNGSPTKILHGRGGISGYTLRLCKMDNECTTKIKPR
Excerpt: Biological Example 1: Factor XIa Inhibition Assay Utilizing a Fluorophore-Quencher Pair Peptide Substrate
A fluorescence intensity (FLINT) based assay was used to monitor inhibition of Factor XIa. The peptide substrate, 5Fam-KLTRAETV-K5Tamra (purchased from New England Peptide) was chosen based on the […]. Conversion of zymogen […]. The custom peptide used in this assay was based on the Arg146 cleavage site of FXI. The peptide substrate was designed with a fluorophore-quencher pair, where the fluorescence is quenched until FXIa cleaves the 8-mer peptide after the Arg residue. The substrate KM was fit to a substrate inhibition model whereby kcat=0.86 s^−1, KM=12.4 μM, Ki=61.6 μM with an enzymatic efficiency, and kcat/KM=69523 M^−1s^−1.
The Factor XIa FLINT assay was used with the following 5Fam-KLTRAETV-K5Tamra assay buffer: 50 mM Tris, pH 7.5, 100 mM NaCl, 5 mM CaCl2, 0.1 mg/mL BSA, 0.03% CHAPS. Assay buffer was prepared by mixing all ingredients fresh. 5Fam-KLTRAETV-K5Tamra peptide substrate was first prepared at 10 mM in 100% DMSO, then diluted to 3 mM in 100% DMSO. Assay buffer was then added directly to the 3 mM stock of substrate to prepare the 30 μM 2× working concentration (15 μM final concentration). The 2× Factor XIa stock solution was prepared by diluting 6.562 μM stock in 1× assay buffer for a […].
Test compound(s) were run in an 11-point, 3-fold serial dilution with a final top compound concentration of 100 nM. Final DMSO in assay was 2%. FXIa was preincubated with compound for 30-minutes and then substrate was added to initiate the reaction. The assay was run with either end point (EP) reads at 30 min or kinetic (KIN) reads at 5 min intervals over 30 minutes. The time course was linear using 100 μM FXIa greater than 30 minutes. More specifically, the assay was run as follows: • 100 nL of 0.01 mM test compound was dispensed into black 384-well non-binding Greiner BioOne 784900 plate for 0.1 μM final concentration; • 5 μL of 1× assay buffer was dispensed to column 24 (low control) and 5 μL 2× Factor XIa solution was dispensed to columns 1-23 (column 23 high control); • the plate was centrifuged with a “cover” plate at 500 rpm for 1 min • the plate was pre-incubated for 30 minutes at room temperature with plate covered; • 5 μL of 2× 5Fam-KLTRAETV-K5Tamra peptide substrate was dispensed into the entire plate, columns 1-24; • the plate was centrifuged with a “cover” plate at 500 rpm for 1 min; • the plate was read monitoring fluorescence intensity on the BMG PHERAStar at room temperature, using fluorescence module 485 nm/520 nm.
as §1
[formula] • where LC—low control=mean signal of no Factor XIa or 100% inhibition of Factor XIa; HC—high control=mean signal of Factor XIa+5Fam-KLTRAETV-K5Tamra peptide substrate with DMSO only.
as §2
[formula] • where Y is the % inhibition in the presence of X inhibitor concentration, Top=high control=mean signal of Factor XIa+5Fam-KLTRAETV-K5Tamra peptide substrate with DMSO only; Bottom=low control—mean signal of no Factor XIa or 100% inhibition of Factor XIa; HillSlope—Hill coefficient; and IC50=concentration of compound with 50% inhibition in relation to top/high control.
Representative compounds of formula (I) of the present invention were tested according to the procedure described in Biological Example 1 and Biological Example 2 above, with results as listed in Table 3, below. […]

Setting [3] is: end point read at 30 min, 30 min preincubation, read-out: Kallikrein (EP) IC50.
Setting [4] is: end point read at 30 min, 30 min preincubation, read-out: FXIa (EP) IC50.
Setting [5] is: kinetic reads at 5 min intervals over 30 min, 30 min preincubation, read-out: Kallikrein (KIN) IC50.
Where [6] appears, read: kinetic reads at 5 min intervals over 30 min, 30 min preincubation, read-out: FXIa (KIN) IC50.
Setting [7] is: kinetic reads, unit μM, read-out: Kallikrein (KIN) IC50.

Like-named read-outs stand apart in the source and are kept apart here.

Chain of human plasma kallikrein (P03952 391-638 limits assumed): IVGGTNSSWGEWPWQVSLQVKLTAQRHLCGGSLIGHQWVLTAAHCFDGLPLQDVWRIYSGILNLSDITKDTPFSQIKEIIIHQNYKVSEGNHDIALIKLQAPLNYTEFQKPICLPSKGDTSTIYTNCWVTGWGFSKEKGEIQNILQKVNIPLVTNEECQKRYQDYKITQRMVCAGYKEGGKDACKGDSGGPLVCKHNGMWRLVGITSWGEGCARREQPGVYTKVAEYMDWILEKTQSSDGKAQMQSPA
Chain of human plasma kallikrein (P03952 20-390 partner limits assumed): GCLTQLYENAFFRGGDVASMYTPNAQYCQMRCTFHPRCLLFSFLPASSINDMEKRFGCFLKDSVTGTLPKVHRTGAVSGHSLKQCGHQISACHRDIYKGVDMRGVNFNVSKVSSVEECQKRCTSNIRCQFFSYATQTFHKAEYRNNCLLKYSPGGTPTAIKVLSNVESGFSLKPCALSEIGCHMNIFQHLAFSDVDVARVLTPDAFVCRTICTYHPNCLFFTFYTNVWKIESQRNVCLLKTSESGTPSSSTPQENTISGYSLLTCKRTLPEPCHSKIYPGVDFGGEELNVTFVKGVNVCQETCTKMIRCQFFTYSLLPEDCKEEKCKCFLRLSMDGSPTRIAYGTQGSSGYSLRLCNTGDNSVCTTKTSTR

Turning to `O=C(N[C@H]1C[C@H](O)C1)c1ccc(-c2cn(C(CC3CC3)c3ccc(-c4cc(Cl)ccc4-n4cnnn4)c[n+]3[O-])cn2)cc1` (mixture of isomers) [M2, 5-(5-Chloro-2-(1H-tetrazol-1-yl)phenyl)-2-(2-cyclopropyl-1-(4-(4-(((1R,3R)-3-hydroxycyclobutyl)carbamoyl)phenyl)-1H-imidazol-1-yl)ethyl)pyridine 1-oxide], the IC50 (usually the concentration at which inhibition is half-maximal) in test [1] (setting [3]) amounted to 1.36 µM; in test [2] (setting [4]) it was 0.1 µM.
Turning to `CCC(c1ccc(-c2c(-n3cnnn3)ccc(Cl)c2F)c[n+]1[O-])n1cnc(-c2ccc(NC(=O)OC)cc2)c1` (racemic) [M4, 5-(3-Chloro-2-fluoro-6-(1H-tetrazol-1-yl)phenyl)-2-(1-(4-(4-((methoxycarbonyl)amino)phenyl)-1H-imidazol-1-yl)propyl)pyridine 1-oxide], the IC50 in test [1] (setting [5]) is 0.202 µM; in test [2] (setting [6]), 0.0121 µM.
For `[2H]C([2H])([2H])n1nccc1-c1cn(C(CCOC(F)F)c2ccc(-c3c(-n4cc(C(F)(F)F)nn4)ccc(Cl)c3F)c[n+]2[O-])cn1` (single isomer, unassigned) [M15, (R*)-5-(3-Chloro-2-fluoro-6-(4-(trifluoromethyl)-1H-1,2,3-triazol-1-yl)phenyl)-2-(3-(difluoromethoxy)-1-(4-(1-(methyl-d3)-1H-pyrazol-5-yl)-1H-imidazol-1-yl)propyl)pyridine 1-oxide], the results for the IC50 in test [1] (setting [7]) and in test [2] (setting [6]) were above 1 µM and above 0.1 µM, respectively.
As for `[2H]C([2H])([2H])n1nccc1-c1cn(C(CCOC(F)F)c2ccc(-c3c(-n4cc(C(F)(F)F)nn4)ccc(Cl)c3F)c[n+]2[O-])cn1` (single isomer, unassigned) [M16, (S*)-5-(3-Chloro-2-fluoro-6-(4-(trifluoromethyl)-1H-1,2,3-triazol-1-yl)phenyl)-2-(3-(difluoromethoxy)-1-(4-(1-(methyl-d3)-1H-pyrazol-5-yl)-1H-imidazol-1-yl)propyl)pyridine 1-oxide], the IC50 in test [1] (setting [5]) was determined as 0.0317 µM; in test [2] (setting [6]), 0.0005 µM.
On the same counts, the results for `COC(=O)Nc1ccc(-c2cn(C(CC3CC3)c3ccc(-c4c(-n5cnnn5)ccc(Cl)c4F)c[n+]3[O-])nn2)cc1` (single isomer, unassigned) [T3, (R*)-5-(3-Chloro-2-fluoro-6-(1H-tetrazol-1-yl)phenyl)-2-(2-cyclopropyl-1-(4-(4-((methoxycarbonyl)amino)phenyl)-1H-1,2,3-triazol-1-yl)ethyl)pyridine 1-oxide] are 0.269 µM and 0.0318 µM.
For the compound `COC(=O)Nc1ccc(-c2cn(C(CC3CC3)c3ccc(-c4c(-n5cnnn5)ccc(Cl)c4F)c[n+]3[O-])nn2)cc1` (single isomer, unassigned) [T4, (S*)-5-(3-Chloro-2-fluoro-6-(1H-tetrazol-1-yl)phenyl)-2-(2-cyclopropyl-1-(4-(4-((methoxycarbonyl)amino)phenyl)-1H-1,2,3-triazol-1-yl)ethyl)pyridine 1-oxide], the IC50 in test [1] (setting [5]) turned out to be 0.0149 µM; in test [2] (setting [6]), 0.001 µM.
In the case of `O=C(O)c1ccc(-c2cn(C(CC3CC3)c3ccc(-c4cc(Cl)ccc4-n4cnnn4)c[n+]3[O-])cn2)cc1` (centres unmarked) [M1, 2-(1-(4-(4-Carboxyphenyl)-1H-imidazol-1-yl)-2-cyclopropylethyl)-5-(5-chloro-2-(1H-tetrazol-1-yl)phenyl)pyridine 1-oxide], the figures for the IC50 in test [1] (setting [3]) and in test [2] (setting [4]) were 0.306 µM and 0.0071 µM, respectively.
With `COC(=O)Nc1ccc(-c2cn(C(CC3CC3)c3ccc(-c4c(-n5cnnn5)ccc(Cl)c4F)c[n+]3[O-])cn2)cc1` (centres unmarked) [M3, 5-(3-Chloro-2-fluoro-6-(1H-tetrazol-1-yl)phenyl)-2-(2-cyclopropyl-1-(4-(4-((methoxycarbonyl)amino)phenyl)-1H-imidazol-1-yl)ethyl)pyridine 1-oxide], the IC50 in test [1] (setting [5]) turned out to be 0.169 µM; in test [2] (setting [6]), 0.0085 µM.
On the same counts, the results for `[O-][n+]1cc(-c2c(-n3cnnn3)ccc(Cl)c2F)ccc1C(Cc1ccc(F)cc1)n1cnc(-c2ccncc2)c1` (centres unmarked) [M5, 5-(3-Chloro-2-fluoro-6-(1H-tetrazol-1-yl)phenyl)-2-(2-(4-fluorophenyl)-1-(4-(pyridin-4-yl)-1H-imidazol-1-yl)ethyl)pyridine 1-oxide] are 0.0017 µM and 0.0007 µM.
Consider `[O-][n+]1cc(-c2c(-n3cc(C(F)(F)F)nn3)ccc(Cl)c2F)ccc1[C@H](CCOC(F)F)n1cnc(-c2ncnn2C(F)F)c1` [M6, (S)-5-(3-Chloro-2-fluoro-6-(4-(trifluoromethyl)-1H-1,2,3-triazol-1-yl)phenyl)-2-(3-(difluoromethoxy)-1-(4-(1-(difluoromethyl)-1H-1,2,4-triazol-5-yl)-1H-imidazol-1-yl)propyl)pyridine 1-oxide], for which the IC50 in test [1] (setting [7]) was above 10 µM; in test [2] (kinetic reads, unit μM printed in the cell, read-out: FXIa (KIN) IC50), above 10 µM.

Values taken from patent publication US20240228465A1, “SUBSTITUTED PYRIDINE N-OXIDE DERIVATIVES USEFUL AS A FACTOR XIA INHIBITORS” (Janssen Pharmaceutica NV, priority 2021, published 2024).
